Experimental data published in patent publication US10655126B2, “Methods and compositions to treat drug-induced diseases and conditions” (University of Vermont and State Agricultural College, priority 2015, dated 2020).

Experiments:
CoxIV = CoxIV level in human MCF7 cells, Western blot (control protein); type: cell-based; conditions: MCF7 cells transfected with h-siMCJ 5 nM, harvested after 30 h; FIG. 10
Description: (§1) A human siMCJ has been tested in a human MCF7 cell line in vitro. […] Transfection methods included transecting human MCF7 cells transfected with h-siMCJ (5 nM) and after 30 h cells were harvested and MCJ expression was examined by Western blot analysis using an anti-human MCJ antibody. CoxIV (mitochondrial protein) and GAPDH were also examined as controls.

MCJ [1] = assay: MCJ knockdown in human MCF7 cells, Western blot; type: cell-based; conditions: MCF7 cells transfected with h-siMCJ 5 nM, harvested after 30 h; FIG. 10
Description: as §1

MCJ [2] = assay: MCJ expression in liver in vivo by Western blot; design: species or system mouse
Description: Analysis for MCJ expression in liver by Western blot analysis was performed as previously described (REF) using a specific anti-MCJ antibody. Expression of GAPDH was used as a control. Band intensities were quantified using the ImageJ software and normalized to the control (GAPDH).
(§2) siMCJ oligos (double strand RNA oligos, see for example, SEQ ID NO: 22) containing the designed sequence were synthesized for in vivo studies (Ambion invivo siRNA). As a delivery system Invivofectamine 3.0 (Life Technology) was used because it is claimed to obtain high efficiency of in vivo delivery of siRNA into hepatocytes. Following the recommendation of the manufacturer, 1.7 mg/Kg was used in combination with invivofectamine 3.0. Preparation of siRNA with the Invivofectamine was performed as recommended by the manufacturer. Mice were administered with a single i.v. dose of siMCJ/invivofectamine in 150 μl.

wild-type hepatocytes = assay: Protection of wild-type hepatocytes from acetaminophen toxic injury by siRNA for MCJ; type: cell-based
wild-type mice = assay: Acetaminophen (APAP) mouse model of drug-induced liver injury: liver histology and serum ALT; type: in vivo
Description: Alanine aminotransferase (ALT) aspartate aminotransferase (AST) and bilirubin were determined in serum samples using the Selectra Junior SpinLab 100 analyzer (Vital Scientific) and the SpinReact reagents according to manufacturer's protocols.
Paraffin-embedded liver samples were sectioned, dewaxed, and hydrated. Immunohistochemistry (IHC) was performed using an anti-MCJ antibody and nuclei were counter-stained with hematoxylin. Quantification of staining area of each sample was analyzed using the Frida software and represented as the % of the stained area relative to the total area (power field). Ten fields per sample were pictured and analyzed. For liver histology, liver sections from paraffin-embedded tissue were stained with hematoxylin and eoxin (H&E staining). Frida software was used for quantification.
as §2

[3] = cited from earlier work

Q: Which results are given for “h-siMCJ: human siRNA sequence gaagatttcaactectagat (as printed), double stranded RNA oligo (GAAGATTTCAACTCCTAGCTT; listed as DNA, chemistry not given here; listed as Homo sapiens)”?
A: levels of CoxIV (another mitochondrial protein) (CoxIV): not affecting the levels of CoxIV; MCJ protein expression (MCJ [1]): sufficient to knockdown MCJ protein expression

Q: With “siMCJ: double strand RNA oligos (see for example SEQ ID NO: 22, mouse siRNA sequence gcgagaggctagtcttatt), given i.v. with Invivofectamine 3.0 (GCGAGAGGCTAGTCTTATT; Invivofectamine 3.0 formulation, further chemistry not given here; listed as Mus musculus)” as the compound, how does the “levels of endogenous MCJ in the liver” value (MCJ [2]; 24 h after single i.v. dose of siMCJ 1.7 mg/Kg with invivofectamine, wild-type mice, FIG. 7) read?
A: Its value is “almost undetectable”.

Q: And the “restoration of MCJ levels in liver” value (MCJ [2]; after 9 days of administration, single i.v. dose of siMCJ, FIG. 7)?
A: Its value is “not a full restoration of MCJ levels”.

Q: What about the “levels of MCJ in the liver of APAP-mice” value (MCJ [2]; siMCJ i.v. 20 h before acetaminophen 360 mg/Kg i.p., harvested 24 h after acetaminophen, relative to APAP-mice without siMCJ, FIG. 8A) of the same compound?
A: The value was “markedly reduced”.

Q: And the “levels of MCJ in the liver” value (MCJ [2]; siMCJ i.v. 24 h after acetaminophen 360 mg/Kg i.p., harvested 48 h after acetaminophen, FIG. 9A)?
A: Its value is “almost undetectable”.

Q: What about the “time for which levels of MCJ in liver remained very low” value (MCJ [2]; single i.v. dose of siMCJ 1.7 mg/Kg with invivofectamine, FIG. 7) of the same compound?
A: The value was “at least 7 days”.

Q: What about the “protection from toxic injury caused by acetaminophen” value (wild-type hepatocytes) of the same compound?
A: The value was “protected wild-type hepatocytes from the development of toxic injury”.

Q: What about the “areas of tissue damage in liver sections (H&E histology)” value (wild-type mice; siMCJ i.v. 20 h before acetaminophen 360 mg/Kg i.p., harvested 24 h after acetaminophen, FIG. 8B) of the same compound?
A: Its value is “almost not detected”.

Q: What about the “quantification of the damage area in the livers” value (wild-type mice; siMCJ i.v. 20 h before acetaminophen, n=5, p<0.05, FIG. 8C) of the same compound?
A: The value was “protective effect”.

Q: And the “levels of ALT in serum” value (wild-type mice; siMCJ i.v. 24 h after acetaminophen 360 mg/Kg i.p., harvested 48 h after acetaminophen, p<0.01 vs control mice, FIG. 9B)?
A: The value was “drastically lower”.

Q: For CC(=O)N[C@@H](CS)C(=O)O [NAC, N-acetylcysteine], which “hepatoprotective effect when given after 8 h” value ([3]; more than 8 h after uptake of acetaminophen) is on record?
A: The value was “minimal to known”.

Q: What about the “time after uptake of acetaminophen within which administration has a hepatoprotective effect” value ([3]; patients with acute hepatic failure due to overdose of acetaminophen) of the same compound?
A: The value was at most 8 h.
